Reference: article PMC5666896, “Molecular Docking and Screening Studies of New Natural Sortase A Inhibitors” (International Journal of Molecular Sciences, 2017)
≈ marks a conversion by molar mass, not a printed value. Entries after “also recorded” stand apart in the source; their conditions may differ.

Key:
[1] = in vivo; conditions: in vivo
Procedure: (§1) The Daphnia magna test was performed in 4 mL 12-tissue culture wells, using 10 daphnids/well, with each sample being tested in duplicate. […] All experiments were conducted in the dark, in a plant growth chamber (Sanyo MLR-351 H, San Diego, CA, USA) at 25 ± 1 °C [32, 33].
(§2) Statistical analysis of the inhibitory effect on SrtA and the Daphnia magna bioassay was performed using GraphPad Prism version 5.01 software (GraphPad Software, Inc., La Jolla, CA, USA). A student’s t-test (p < 0.05) was applied in order to analyze the results obtained from replicates. […] The inhibition (I %) and lethality percentage (L %) values were calculated and plotted against the logarithm of concentrations and the corresponding curves were calculated using the least squares fit method. […] Whenever the obtained results permitted, the upper and lower limits of the 95% confidence interval (95% CI) and the correlation coefficient (r^2) were calculated.

[2] = test system: S. aureus ATCC 25923; assay: Broth microdilution MIC; format: cell-based; conditions: Staphylococcus aureus, ATCC25923; 37 °C, 24 h
Procedure: (§3) Eight food-related microorganisms were used to evaluate the antimicrobial properties, including the Gram-positive Staphylococcus aureus ATCC 6538, Staphylococcus aureus ATCC 25923, Staphylococcus epidermidis ATCC 12228, Enterococcus faecalis ATCC 29212, Bacillus cereus ATCC 11778, and the Gram-negative Escherichia coli ATCC 8739, Escherichia coli ATCC 35218, and Proteus mirabilis ATCC 29245. The antibacterial assays were performed by the well diffusion and broth microdilution method (ISO 20776-1) in order to determine MIC. Test microorganisms were stored in freezing conditions and activated by cultivation in Nutrient broth at 37 °C for 24 h. […] Dilutions of the inoculum were cultured on nutrient agar supplemented with 5% sheep blood to verify the absence of contamination and the validity of the inoculum. Bacterial strains susceptible to compounds in the well diffusion assay were studied for their MIC values using 96-well microtiter plates. The experiments were conducted using the reference method for testing the in vitro activity of the antimicrobial agents where MIC is the lowest concentration of an antimicrobial agent that, under defined in vitro conditions, prevents the appearance of visible growth of the microorganism after its incubation overnight. A total of 250 μL of the bacterial suspension in sterile demineralized water was added to 11 mL Mueller-Hinton broth (MBH) to a concentration of 5 × 10^7 cells/mL. Compounds to be investigated were dissolved in MBH containing bacterial inoculum (5 × 10^4 CFU/well) to achieve the two-fold serial concentrations ranging between […] [30]. The microplates were covered with an adhesive seal and incubated at 37 °C for 24 h. DMSO combined with MHB was used as the negative control for each bacterial strain. The plates were visually read under normal laboratory lighting using a manual mirror viewer. Two replicates were conducted for each compound and each bacterial strain.

[3] = test system: S. epidermidis ATCC 12228; assay: Broth microdilution MIC; format: cell-based; conditions: Staphylococcus epidermidis, ATCC12228; 37 °C, 24 h
Procedure: as §3

[4] = test system: B. cereus ATCC 11778; assay: Broth microdilution MIC; format: cell-based; conditions: Bacillus cereus, ATCC11778; 37 °C, 24 h
Procedure: as §3

[5] = test system: S. aureus ATCC 25923; assay: Well diffusion test; format: cell-based; conditions: Staphylococcus aureus, ATCC25923; well 6 mm; gentamicin 10 μg, emodin 13.5 μg, rhein 14.2 μg; 37 °C, 24 h; read-out: Diameters of inhibition zone (mm), including diameter of well
Procedure: (§4) Eight food-related microorganisms were used to evaluate the antimicrobial properties, including the Gram-positive Staphylococcus aureus ATCC 6538, Staphylococcus aureus ATCC 25923, Staphylococcus epidermidis ATCC 12228, Enterococcus faecalis ATCC 29212, Bacillus cereus ATCC 11778, and the Gram-negative Escherichia coli ATCC 8739, Escherichia coli ATCC 35218, and Proteus mirabilis ATCC 29245. The antibacterial assays were performed by the well diffusion and broth microdilution method (ISO 20776-1) in order to determine MIC.
(§5) Test microorganisms were stored in freezing conditions and activated by cultivation in Nutrient broth at 37 °C for 24 h. Overnight cultures were used to obtain the inoculum by transferring an amount of cells from the broth to a test tube containing 5 mL of demineralized water until a turbidity of 1–2 × 10^8 colony-forming unit (CFU)/mL was achieved, equivalent to 0.5 McFarland standard. Dilutions of the inoculum were cultured on nutrient agar supplemented with 5% sheep blood to verify the absence of contamination and the validity of the inoculum.
(§6) Compounds were investigated by the agar well diffusion method. The plates containing Mueller Hinton agar medium were spread with 0.1 mL of the bacterial inoculum. The wells (6 mm diameter) were filled with 50 μL of the sample. The plates were incubated at 37 °C for 24 h. DMSO was used as a negative control and one standard antibiotic (gentamicin, 10 μg) as a positive control. Microbial inhibition was visually appreciated as the diameter of the inhibition zones surrounding the well and recorded in mm. All tests were run in triplicate for each combination of extract and microbial strain [26].

[6] = test system: S. aureus ATCC 6538; assay: Well diffusion test; format: cell-based; conditions: Staphylococcus aureus, ATCC6538; well 6 mm; gentamicin 10 μg, emodin 13.5 μg, rhein 14.2 μg; 37 °C, 24 h; read-out: Diameters of inhibition zone (mm), including diameter of well
Procedure: as §4, §5, §6

[7] = test system: E. faecalis ATCC 29212; assay: Well diffusion test; format: cell-based; conditions: Enterococcus faecalis, ATCC29212; well 6 mm; gentamicin 10 μg, emodin 13.5 μg, rhein 14.2 μg; 37 °C, 24 h; read-out: Diameters of inhibition zone (mm), including diameter of well
Procedure: as §4, §5, §6

[8] = test system: E. coli ATCC 8739; assay: Well diffusion test; format: cell-based; conditions: Escherichia coli, ATCC8739; well 6 mm; gentamicin 10 μg, emodin 13.5 μg, rhein 14.2 μg; 37 °C, 24 h; read-out: Diameters of inhibition zone (mm), including diameter of well
Procedure: as §4, §5, §6

[9] = test system: P. mirabilis ATCC 29245; assay: Well diffusion test; format: cell-based; conditions: Proteus mirabilis, ATCC29245; well 6 mm; gentamicin 10 μg, emodin 13.5 μg, rhein 14.2 μg; 37 °C, 24 h; read-out: Diameters of inhibition zone (mm), including diameter of well
Procedure: as §4, §5, §6

[10] = test system: S. epidermidis ATCC 12228; assay: Well diffusion test; format: cell-based; conditions: Staphylococcus epidermidis, ATCC12228; well 6 mm; gentamicin 10 μg, emodin 13.5 μg, rhein 14.2 μg; 37 °C, 24 h; read-out: Diameters of inhibition zone (mm), including diameter of well
Procedure: as §4, §5, §6

[11] = test system: B. cereus ATCC 11778; assay: Well diffusion test; format: cell-based; conditions: Bacillus cereus, ATCC11778; well 6 mm; gentamicin 10 μg, emodin 13.5 μg, rhein 14.2 μg; 37 °C, 24 h; read-out: Diameters of inhibition zone (mm), including diameter of well
Procedure: as §4, §5, §6

[12] = test system: E. coli ATCC 35218; assay: Well diffusion test; format: cell-based; conditions: Escherichia coli, ATCC35218; well 6 mm; gentamicin 10 μg, emodin 13.5 μg, rhein 14.2 μg; 37 °C, 24 h; read-out: Diameters of inhibition zone (mm), including diameter of well
Procedure: as §4, §5, §6

[13] = test system: tested bacteria strains; assay: Preliminary antibacterial screening by well diffusion test; format: cell-based; conditions: eight strains
Procedure: as §4, §5
Compounds were investigated by the agar well diffusion method. The plates containing Mueller Hinton agar medium were spread with 0.1 mL of the bacterial inoculum. […] Microbial inhibition was visually appreciated as the diameter of the inhibition zones surrounding the well and recorded in mm. […]

[14] = biological target: T1, SrtA (Staphylococcus aureus, UniProt Q2FV99); assay: Sortase A activity assay (FRET, SensoLyte 520 kit); format: biochemical, S. aureus
T1 construct: purchased Anaspec, San Jose, CA, USA
Procedure: The inhibitory activity of all of the compounds was determined by quantifying the increase in fluorescence intensity upon a cleavage 5-FAM/QXL® FRET substrate using a SensoLyte® 520 Sortase A Activity Assay Kit (Anaspec, San Jose, CA, USA). According to kit protocol, reactions were performed in a 96-well plate, with each well containing 10 μL test compound solution, 40 μL enzyme solution, and 50 μL sortase substrate solution. All compounds were dissolved in dimethyl sulfoxide (DMSO) and diluted with sterilized distilled water. The final concentration of DMSO was 1%. Each compound diluted in buffer to the tested concentration and was checked for intrinsic fluorescence. According to the kit protocol, we used the enzyme without the test compound as a control, a 1% DMSO control, and a substrate control. We used the kit inhibitor, 4-hydroxymercuribenzoic acid (HMB), as the positive control. Reactions were carried out for 1 h at room temperature and analyzed fluorometrically (SpectraMAX Gemini XS, CA, USA) at Ex/Em = 490 nm/520 nm. All reported values are the means of triplicate assays.

[15] = test system: Daphnia magna; assay: in vivo; conditions: after 48 h; tested 0.5 to 100 μM
Procedure: as §1, §2

[16] = Solubility in water (observation during FRET testing)
[17] = biological target: T1, SrtA; conditions: cited from earlier work

T1 sequence (Q2FV99 whole entry): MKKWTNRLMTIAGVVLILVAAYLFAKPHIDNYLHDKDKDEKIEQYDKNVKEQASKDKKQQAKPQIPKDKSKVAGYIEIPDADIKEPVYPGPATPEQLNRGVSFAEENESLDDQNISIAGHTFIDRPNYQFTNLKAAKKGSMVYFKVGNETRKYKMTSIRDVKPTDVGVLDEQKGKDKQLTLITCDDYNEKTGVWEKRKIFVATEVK

## Cc1cc(O)c2c(c1)C(=O)c1cc(O)cc(O)c1C2=O [Emodin]
[1]
  LC50 at 24 h: 34.7 µM
  LC50 at 48 h: 24.2 µM
[2]
  MIC: 8 µg/mL (≈ 29.6 µM)
[3]
  MIC: 8 µg/mL (≈ 29.6 µM)
[4]
  MIC: 16 µg/mL (≈ 59.2 µM)
[5]
  zone of inhibition at 13.5 µg/disc: 20 mm
[6]
  zone of inhibition at 13.5 µg/disc: 6 mm
[7]
  zone of inhibition at 13.5 µg/disc: 6 mm
[8]
  zone of inhibition at 13.5 µg/disc: 6 mm
[9]
  zone of inhibition at 13.5 µg/disc: 6 mm
[10]
  zone of inhibition at 13.5 µg/disc: 14 mm
[11]
  zone of inhibition at 13.5 µg/disc: 12 mm
[12]
  zone of inhibition at 13.5 µg/disc: 6 mm
[13]
  Antimicrobial effect (result in words): observable antimicrobial effect
[14]
  SrtA inhibition (result in words): statistically significant SrtA inhibition
  inhibition at 100 µM: 10.1%

## CNC(C)C1CCC(N)C(OC2C(N)CC(N)C(OC3OCC(C)(O)C(NC)C3O)C2O)O1 (centres unmarked) [Gentamicin, reference compound]
[2]
  MIC: 2 µg/mL (≈ 4.19 µM)
[3]
  MIC: 2 µg/mL (≈ 4.19 µM)
[4]
  MIC: 4 µg/mL (≈ 8.38 µM)
[5]
  zone of inhibition at 10 µg/disc: 21 mm
[6]
  zone of inhibition at 10 µg/disc: 17 mm
[7]
  zone of inhibition at 10 µg/disc: 12 mm
[8]
  zone of inhibition at 10 µg/disc: 21 mm
[9]
  zone of inhibition at 10 µg/disc: 20 mm
[10]
  zone of inhibition at 10 µg/disc: 29 mm
[11]
  zone of inhibition at 10 µg/disc: 24 mm
[12]
  zone of inhibition at 10 µg/disc: 20 mm

## O=c1c(O)c(-c2ccc(O)c(O)c2)oc2cc(O)cc(O)c12 [Quercetin]
[15]
  Maximum lethality: ≤ 30%
[16]
  Solubility in water (result in words): low solubility in water; also recorded: very low solubility in water
[14]
  SrtA inhibition (result in words): statistically significant SrtA inhibition
  inhibition at 10 µM: 8.55%
[17]
  Inhibition of SrtA enzymatic activity (result in words): proven to inhibit SrtA enzymatic activity

## O=C(O)c1cc(O)c2c(c1)C(=O)c1cccc(O)c1C2=O [Rhein]
[16]
  Solubility in water (result in words): low solubility in water
[2]
  MIC: 64 µg/mL (≈ 225 µM)
[3]
  MIC: 16 µg/mL (≈ 56.3 µM)
[4]
  MIC: 32 µg/mL (≈ 113 µM)
[5]
  zone of inhibition at 14.2 µg/disc: 12 mm
[6]
  zone of inhibition at 14.2 µg/disc: 6 mm
[7]
  zone of inhibition at 14.2 µg/disc: 6 mm
[8]
  zone of inhibition at 14.2 µg/disc: 6 mm
[9]
  zone of inhibition at 14.2 µg/disc: 6 mm
[10]
  zone of inhibition at 14.2 µg/disc: 30 mm
[11]
  zone of inhibition at 14.2 µg/disc: 15 mm
[12]
  zone of inhibition at 14.2 µg/disc: 6 mm
[13]
  Antimicrobial effect (result in words): observable antimicrobial effect
[14]
  SrtA inhibition (result in words): statistically significant SrtA inhibition
  inhibition at 10 µM: 7.01%
